{"source": "ChEMBL document CHEMBL5380875", "about": "“Discovery of a Potent and Oral Available Complex I OXPHOS Inhibitor That Abrogates Tumor Growth and Circumvents MEKi Resistance” (J Med Chem, 2023)", "key": {"[1]": {"test": "Toxicity in mouse xenografted with human NCI-H460 cells with high-OXPHOS assessed as reduction in serum AST level at 30 mg/kg, po bid administered for 18 days", "format": "organism-based", "conditions": "in vivo, 432 h, time 18 day"}, "[2]": {"test": "Toxicity in mouse xenografted with human NCI-H460 cells with high-OXPHOS assessed as reduction in body weight at 30 mg/kg, po bid administered for 18 days", "format": "organism-based", "conditions": "in vivo, 432 h, time 18 day"}, "[3]": {"test": "AUC (0 to 24 hrs) in ICR mouse at 1 mg/kg, iv measured for 24 hrs by LC-MS/MS analysis", "format": "ADME, organism-based", "set-up": "time 24 hrs, dose 1 mg/kg, route iv", "conditions": "in vivo"}, "[4]": {"test": "Cmax in ICR mouse at 1 mg/kg, iv measured for 24 hrs by LC-MS/MS analysis", "format": "ADME, organism-based", "set-up": "dose 1 mg/kg, time 24 hrs, route iv", "conditions": "in vivo"}, "[5]": {"test": "AUC (0 to infinity) in ICR mouse at 1 mg/kg, iv measured for 24 hrs by LC-MS/MS analysis", "format": "ADME, organism-based", "set-up": "dose 1 mg/kg, time 24 hrs, route iv", "conditions": "in vivo"}, "[6]": {"target": "Cytochrome P450 2D6 (Homo sapiens, UniProt P10635)", "sequence (P10635 whole entry)": "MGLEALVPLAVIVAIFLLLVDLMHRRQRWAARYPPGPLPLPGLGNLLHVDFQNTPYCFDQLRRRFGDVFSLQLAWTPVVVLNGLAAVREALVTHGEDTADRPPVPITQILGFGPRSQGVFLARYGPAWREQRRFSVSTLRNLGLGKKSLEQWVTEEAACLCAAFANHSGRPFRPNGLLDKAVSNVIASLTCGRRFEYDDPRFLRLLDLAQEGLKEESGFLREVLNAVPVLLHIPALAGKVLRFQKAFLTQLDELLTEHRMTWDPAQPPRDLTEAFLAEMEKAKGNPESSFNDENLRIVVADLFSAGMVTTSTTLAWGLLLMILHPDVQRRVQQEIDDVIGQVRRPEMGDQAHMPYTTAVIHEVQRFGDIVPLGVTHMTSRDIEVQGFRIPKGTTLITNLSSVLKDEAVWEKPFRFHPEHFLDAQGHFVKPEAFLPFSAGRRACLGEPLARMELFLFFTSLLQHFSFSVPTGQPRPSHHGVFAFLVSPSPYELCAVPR", "test": "Inhibition of CYP2D6 in human liver microsomes", "format": "ADME, Microsome"}, "[7]": {"test_system": "A549", "test": "Inhibition of mitochondrial respiration in human Trametinib-resistant A549 cell assessed as reduction in basal oxygen consumption rate at 50 to 200 nM incubated for 12 hrs by seahorse XF96 flux analyzer", "format": "functional, cell-based", "conditions": "dose 50-200 nM"}, "[8]": {"test_system": "NCI-H460", "test": "Inhibition of mitochondrial respiration in human NCI-H460 cells with high-OXPHOS assessed as reduction in spare oxygen consumption rate capacity incubated for 12 hrs by seahorse XF96 flux analyzer", "format": "functional, cell-based", "conditions": "dose 50-200 nM"}, "[9]": {"test": "AUC (0 to infinity) in ICR mouse at 10 mg/kg, po measured for 24 hrs by LC-MS/MS analysis", "format": "ADME, organism-based", "set-up": "dose 10 mg/kg, time 24 hrs, route po", "conditions": "in vivo"}, "[10]": {"target": "Cytochrome P450 3A4 (Homo sapiens, UniProt P08684)", "sequence (P08684 whole entry)": "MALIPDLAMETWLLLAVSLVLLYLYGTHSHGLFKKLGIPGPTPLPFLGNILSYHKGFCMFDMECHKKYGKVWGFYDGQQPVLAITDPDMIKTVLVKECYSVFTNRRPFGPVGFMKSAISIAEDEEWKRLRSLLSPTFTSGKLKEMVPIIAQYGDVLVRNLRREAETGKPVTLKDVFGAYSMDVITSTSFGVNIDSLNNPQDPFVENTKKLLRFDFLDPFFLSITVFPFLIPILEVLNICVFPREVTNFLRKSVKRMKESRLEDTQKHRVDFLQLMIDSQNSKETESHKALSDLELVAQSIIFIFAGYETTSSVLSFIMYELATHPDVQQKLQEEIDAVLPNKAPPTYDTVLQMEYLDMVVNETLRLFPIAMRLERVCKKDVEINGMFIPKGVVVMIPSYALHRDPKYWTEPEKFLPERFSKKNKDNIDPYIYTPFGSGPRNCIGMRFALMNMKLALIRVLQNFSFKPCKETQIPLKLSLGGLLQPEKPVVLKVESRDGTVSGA", "test": "Inhibition of CYP3A4 in human liver microsomes using midazolam as substrate", "format": "ADME, Microsome"}, "[11]": {"test_system": "NCI-H441", "test": "Potentiation of trametinib-induced cytotoxicity against human NCI-H441 cells with high-OXPHOS harboring KRAS G12V mutant assessed as reduction in cell viability at 10 to 20 uM incubated for 72 hrs by CellTiter 96 cell proliferation assay", "format": "functional, cell-based", "conditions": "dose 10-20 µM"}, "[12]": {"test_system": "A549", "test": "Inhibition of colony formation in human Trametinib-resistant A549 cells with high-OXPHOS incubated for 7 days by crystal violet staining based analysis", "format": "functional, cell-based", "conditions": "dose 25-100 nM, time 7.0 day"}, "[13]": {"test_system": "NCI-H460", "test": "Induction of apoptosis in human NCI-H460 cells with high-OXPHOS harboring KRAS Q61H mutant assessed as early apoptotic cells at 20 nM incubated for 72 hrs in presence of trametinib by Annexin V-FITC/propidium iodide staining based flow cytometry analysis (reference value: 1.95%)", "format": "functional"}, "[14]": {"test_system": "NCI-H460", "test": "Inhibition of colony formation in human NCI-H460 cells with high-OXPHOS incubated for 7 days by crystal violet staining based analysis", "format": "functional, cell-based", "conditions": "dose 250-1000 nM, time 7.0 day"}, "[15]": {"test": "Toxicity in mouse xenografted with human NCI-H460 cells with high-OXPHOS assessed as reduction in serum creatinine level at 30 mg/kg, po bid administered for 18 days", "format": "organism-based", "conditions": "in vivo, 432 h, time 18 day"}, "[16]": {"test_system": "NCI-H460", "test": "Induction of apoptosis in human NCI-H460 cells with high-OXPHOS assessed as late apoptotic cells at 30 nM incubated for 48 hrs by Annexin V-FITC/propidium iodide staining based flow cytometry analysis (reference value: 12.8%)", "format": "functional"}}, "note": "Activity calls are given as the source filed them. The rule behind the calls is not given here."}
{"smiles": "Cc1c(C(=O)N2CCN(Cc3ccc(OCC(F)(F)F)cc3)CC2)nnn1Cc1ccc(C(=O)Nc2ccc(C(F)(F)F)cc2)nc1", "values": [{"measurement": "Activity", "setting": "[1]", "value": "Non-Toxic"}, {"measurement": "Activity", "setting": "[2]", "value": "Non-Toxic"}, {"measurement": "AUC(0-t) at 24 h", "setting": "[3]", "value": 337, "unit": "ng·h/mL"}, {"measurement": "Cmax", "setting": "[4]", "value": 425, "unit": "ng/mL"}, {"measurement": "AUC(0-inf)", "setting": "[5]", "value": 359, "unit": "ng·h/mL"}, {"measurement": "IC50", "setting": "[6]", "value": "> 50", "unit": "µM"}, {"measurement": "inhibition", "setting": "[7]", "value": "Active"}, {"measurement": "inhibition", "setting": "[8]", "value": "Dose-Dependent Effect"}, {"measurement": "AUC(0-inf)", "setting": "[9]", "value": 2300, "unit": "ng·h/mL"}, {"measurement": "IC50", "setting": "[10]", "value": "> 50", "unit": "µM"}, {"measurement": "Activity", "setting": "[11]", "value": "Active"}, {"measurement": "inhibition", "setting": "[12]", "value": "Dose-Dependent Effect"}, {"measurement": "Activity", "setting": "[13]", "value": 26.2, "unit": "%"}, {"measurement": "inhibition", "setting": "[14]", "value": "Dose-Dependent Effect"}, {"measurement": "Activity", "setting": "[15]", "value": "Non-Toxic"}, {"measurement": "Activity", "setting": "[16]", "value": 37.8, "unit": "%"}]}
